Key:
[1] = cited from earlier work
[2] = saturation concentration / solubility of salicylic acid in solvent; type: physicochemical; details: solution temperature of 25° C.

saturation concentration of salicylic acid in ethanol [2]: > 30 wt %
SMILES: O=C(O)c1ccccc1O [salicylic acid, 2-hydroxybenzoic acid]
solubility in water [1]: relatively insoluble in water
